Assay results reported in US10875876B2, “Cyclized sulfamoylarylamide derivatives and the use thereof as medicaments for the treatment of hepatitis B” (priority 2015, dated 2020).

Legend:
HBV = assay: anti HBV activity, HepG2.117 cell line, intracellular HBV DNA by realtime PCR; type: cell-based; conditions: Hepatitis B virus, HepG2.117, 72 h, HepG2.117 cell line (Tet-off), 3 days of treatment, intracellular HBV DNA quantified by realtime PCR; read-out: HBV-AVE-HepG2.117 EC50
How it was run: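 HepG2.117 cells, a Tet-off line that replicates HBV without doxycycline, were induced and then treated in duplicate with serially diluted compound. After 3 days, intracellular HBV DNA was quantified by real-time PCR with an HBV-specific primer set and probe.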

[1] = Cytotoxicity in HepG2 cells, Resazurin assay; conditions: human, HepG2 cells, TOX-HepG2-4 d CC50 (μM), HepG2 cells incubated for 4 days, viability by Resazurin assay

Cn1cc2c(c1C(=O)Nc1ccc(F)c(Cl)c1)OCC(C)(Cc1cccnc1)NS2(=O)=O (stereo not drawn) [Compound 211, N-(3-chloro-4-fluoro-phenyl)-3,7-dimethyl-1,1-dioxo-3-(3-pyridylmethyl)-2,4-dihydropyrrolo[3,4-b][1,4,5]oxathiazepine-6-carboxamide]
EC50 (HBV): 7 nM | melting point: 211.5 °C | CC50 at 4 days [1]: > 25 µM

Cc1cccc(CC2(C)COc3c(cn(C)c3C(=O)Nc3ccc(F)c(F)c3)S(=O)(=O)N2)n1 (racemic) [Compound 172, N-(3,4-difluorophenyl)-3,7-dimethyl-3-[(6-methyl-2-pyridyl)methyl]-1,1-dioxo-2,4-dihydropyrrolo[3,4-b][1,4,5]oxathiazepine-6-carboxamide]
EC50 (HBV): 74 nM | melting point: 206 °C | CC50 at 4 days [1]: > 25 µM

Cn1cc2c(c1C(=O)Nc1ccc(F)c(F)c1)OCC(C)(Cc1cccnc1)NS2(=O)=O (racemic) [Compound 199, N-(3,4-difluorophenyl)-3,7-dimethyl-1,1-dioxo-3-(3-pyridylmethyl)-2,4-dihydropyrrolo[3,4-b][1,4,5]oxathiazepine-6-carboxamide]
EC50 (HBV): 15 nM | melting point: 268.3 °C | CC50 at 4 days [1]: > 25 µM

Cn1cc2c(c1C(=O)Nc1ccc(F)c(F)c1)CC[C@H](C(C)(C)O)NS2(=O)=O [Compound 102, (3R)—N-(3,4-difluorophenyl)-3-(1-hydroxy-1-methyl-ethyl)-7-methyl-1,1-dioxo-2,3,4,5-tetrahydropyrrolo[3,4-f]thiazepine-6-carboxamide]
EC50 (HBV): 9 nM | melting point: 218.2 °C | CC50 at 4 days [1]: > 25 µM

Cn1cc2c(c1C(=O)Nc1ccc(F)c(C#N)c1)OC[C@](C)(c1ccccn1)NS2(=O)=O [Compound 128, (3S)—N-(3-cyano-4-fluoro-phenyl)-3,7-dimethyl-1,1-dioxo-3-(2-pyridyl)-2,4-dihydropyrrolo[3,4-b][1,4,5]oxathiazepine-6-carboxamide]
EC50 (HBV): 24 nM | melting point: 235 °C | CC50 at 4 days [1]: > 25 µM

C[C@H](O)[C@H]1C=Cc2c(cn(C)c2C(=O)Nc2ccc(F)c(C(F)F)c2)S(=O)(=O)N1 [Compound 96, (3R)—N-[3-(difluoromethyl)-4-fluoro-phenyl]-3-[(1S)-1-hydroxyethyl]-7-methyl-1,1-dioxo-2,3-dihydropyrrolo[3,4-f]thiazepine-6-carboxamide]
EC50 (HBV): 5 nM | melting point: 182.3 °C | CC50 at 4 days [1]: > 25 µM

C[C@H](O)[C@H]1C=Cc2c(cn(C)c2C(=O)Nc2cc(F)c(F)c(F)c2)S(=O)(=O)N1 [Compound 98, (3R)-3-[(1S)-1-hydroxyethyl]-7-methyl-1,1-dioxo-N-(3,4,5-trifluorophenyl)-2,3-dihydropyrrolo[3,4-f]thiazepine-6-carboxamide]
EC50 (HBV): 8 nM | melting point: 244 °C | CC50 at 4 days [1]: > 25 µM

Cn1cc2c(c1C(=O)Nc1ccc(F)c(F)c1)OC[C@](C)(c1ccccn1)NS2(=O)=O [Compound 127, (3S)—N-(3,4-difluorophenyl)-3,7-dimethyl-1,1-dioxo-3-(2-pyridyl)-2,4-dihydropyrrolo[3,4-b][1,4,5]oxathiazepine-6-carboxamide]
EC50 (HBV): 13 nM | melting point: 270.8 °C | CC50 at 4 days [1]: > 25 µM

Cc1cccc(C2(C)COc3c(cn(C)c3C(=O)Nc3ccc(F)c(C(F)F)c3)S(=O)(=O)N2)n1 (racemic) [Compound 177, N-[3-(difluoromethyl)-4-fluoro-phenyl]-3,7-dimethyl-3-(6-methyl-2-pyridyl)-1,1-dioxo-2,4-dihydropyrrolo[3,4-b][1,4,5]oxathiazepine-6-carboxamide]
EC50 (HBV): 8 nM | melting point: 210.2 °C | CC50 at 4 days [1]: > 25 µM

Cn1cc2c(c1C(=O)Nc1ccc(F)c(Cl)c1)OC[C@H](C(C)(C)O)NS2(=O)=O [Compound 180, (3R)—N-(3-chloro-4-fluoro-phenyl)-3-(1-hydroxy-1-methyl-ethyl)-7-methyl-1,1-dioxo-3,4-dihydro-2H-pyrrolo[3,4-b][1,4,5]oxathiazepine-6-carboxamide]
EC50 (HBV): 5 nM | melting point: 234.1 °C | CC50 at 4 days [1]: > 25 µM

Cn1cc2c(c1C(=O)Nc1ccc(F)c(F)c1)OCC(C)(Cc1ccncc1)NS2(=O)=O (stereo not drawn) [Compound 191, N-(3,4-difluorophenyl)-3,7-dimethyl-1,1-dioxo-3-(4-pyridylmethyl)-2,4-dihydropyrrolo[3,4-b][1,4,5]oxathiazepine-6-carboxamide]
EC50 (HBV): 10 nM | melting point: 276 °C | CC50 at 4 days [1]: > 25 µM

Cn1ccc(C2(C)COc3c(cn(C)c3C(=O)Nc3ccc(F)c(F)c3)S(=O)(=O)N2)n1 (single isomer, unassigned) [Compound 192a, N-(3,4-difluorophenyl)-3,7-dimethyl-3-(1-methylpyrazol-3-yl)-1,1-dioxo-2,4-dihydropyrrolo[3,4-b][1,4,5]oxathiazepine-6-carboxamide]
EC50 (HBV): 36 nM | melting point: 208.7 °C | CC50 at 4 days [1]: > 25 µM

Cn1cc2c(c1C(=O)Nc1ccc(F)c(C(F)F)c1F)OC[C@H](C(C)(C)O)NS2(=O)=O [Compound 182, (3R)—N-[3-(difluoromethyl)-2,4-difluoro-phenyl]-3-(1-hydroxy-1-methyl-ethyl)-7-methyl-1,1-dioxo-3,4-dihydro-2H-pyrrolo[3,4-b][1,4,5]oxathiazepine-6-carboxamide]
EC50 (HBV): 10 nM | melting point: 182.1 °C | CC50 at 4 days [1]: > 25 µM

Cn1cc2c(c1C(=O)Nc1ccc(F)c(F)c1)OC[C@@H](C(C)(C)F)NS2(=O)=O [Compound 121, (3S)—N-(3,4-difluorophenyl)-3-(1-fluoro-1-methyl-ethyl)-7-methyl-1,1-dioxo-3,4-dihydro-2H-pyrrolo[3,4-b][1,4,5]oxathiazepine-6-carboxamide]
EC50 (HBV): 29 nM | melting point: 239.8 °C | CC50 at 4 days [1]: > 25 µM

Cn1cc2c(c1C(=O)Nc1ccc(F)c(F)c1)OC[C@@H](C(C)(C)O)NS2(=O)=O [Compound 94, (3S)—N-(3,4-difluorophenyl)-3-(1-hydroxy-1-methyl-ethyl)-7-methyl-1,1-dioxo-3,4-dihydro-2H-pyrrolo[3,4-b][1,4,5]oxathiazepine-6-carboxamide]
EC50 (HBV): 80 nM | melting point: 234.1 °C | CC50 at 4 days [1]: > 25 µM

C[C@H](O)[C@H]1CCc2c(cn(C)c2C(=O)Nc2ccc(F)c(Cl)c2)S(=O)(=O)N1 [Compound 193, (3R)—N-(3-chloro-4-fluoro-phenyl)-3-[(1S)-1-hydroxyethyl]-7-methyl-1,1-dioxo-2,3,4,5-tetrahydropyrrolo[3,4-f]thiazepine-6-carboxamide]
EC50 (HBV): 6 nM | melting point: 290.8 °C | CC50 at 4 days [1]: > 25 µM

Cn1cc2c(c1C(=O)Nc1ccnc(Cl)c1)OC[C@H](C(C)(C)O)NS2(=O)=O [Compound 146, (3R)—N-(2-chloro-4-pyridyl)-3-(1-hydroxy-1-methyl-ethyl)-7-methyl-1,1-dioxo-3,4-dihydro-2H-pyrrolo[3,4-b][1,4,5]oxathiazepine-6-carboxamide]
EC50 (HBV): 55 nM | melting point: 246.6 °C | CC50 at 4 days [1]: > 25 µM

Cn1ccnc1CC1(C)COc2c(cn(C)c2C(=O)Nc2ccc(F)c(F)c2)S(=O)(=O)N1 (stereo not drawn) [Compound 173, N-(3,4-difluorophenyl)-3,7-dimethyl-3-[(1-methylimidazol-2-yl)methyl]-1,1-dioxo-2,4-dihydropyrrolo[3,4-b][1,4,5]oxathiazepine-6-carboxamide]
EC50 (HBV): 17 nM | melting point: 297.1 °C | CC50 at 4 days [1]: > 25 µM
